Reference: paper PMC6755732, “Structural, Biochemical, and In Vivo Characterization of MtrR-Mediated Resistance to Innate Antimicrobials by the Human Pathogen Neisseria gonorrhoeae” (Journal of Bacteriology, 2019)
Like-named read-outs stand apart in the source and are kept apart here. Marks after values point to notes of the source that are not given here.

Tests used:
MtrR-DNA complex = target: T1, MtrR-DNA complex (Neisseria gonorrhoeae, UniProt P39897); type: biochemical; details: EMSA, wild-type MtrR, mtrC promoter oligoduplex
T1 construct: nearly all 210 residues of each protomer observed, with the exception of residues 1 through 7; hexahistidine tag (thrombin-cleavable) (cleaved yes); made in house
Protocol: To test the hypothesis that these bile salts directly bind to MtrR and potentially derepress gene expression by interfering with the DNA binding activity of MtrR, MtrR-mtrC promoter interactions were tested in the presence and absence of different concentrations of several bile salts. […] It is important to note that this is a competition assay that, due to its experimental design, requires the use of 3 μM DNA and 4 to 10 μM MtrR dimer. Consequently, this means that ∼99.9% of all DNA is MtrR bound.
Complementary oligodeoxynucleotides containing the MtrR binding site from the mtrC promoter (top strand, 5′-[sequence]-3′; an unusual pseudo-direct repeat is underlined) were annealed by heating an equimolar mixture of the top and bottom strands at 95°C for 5 min, followed by slow cooling to room temperature. Binding reactions were carried out in 20-μl volumes of binding buffer (20 mM Tris [pH 8.0], 200 mM NaCl, 10% glycerol, and 1 mM TCEP) containing 1 μg oligoduplex, 1 μg poly(dI-dC), and 4 to 10 μg MtrR. After a 20-minute incubation at room temperature, the preformed complex was incubated with or without various concentrations of selected bile salts at room temperature for an additional 10 min. […] The gels were stained with ethidium bromide and visualized and analyzed with an Alpha Innotech gel documentation instrument. The intensities of free DNA were measured with ImageJII ([61], [62]).

MtrR-mtrCDE promoter = target: T2, MtrR-mtrCDE promoter (Neisseria gonorrhoeae, UniProt P39897); type: biochemical; details: for Fold increase in Kd: versus no bile salt
T2 construct: nearly all 210 residues of each protomer observed, with the exception of residues 1 through 7; hexahistidine tag (thrombin-cleavable) (cleaved yes); made in house
Protocol: Thus, to rule out any effect of alkaline pH on MtrR-DNA interactions, we buffered the CAPS used in the FP assay to pH 8.0 before testing its effect on DNA binding.
Fluorescence polarization-based DNA binding experiments were performed with a Panvera Beacon 2000 fluorescence polarization system (Invitrogen) utilizing 5′-fluorescein-labeled DNA. Polarization (P) of such 5′-labeled DNA increases as a function of protein binding, and equilibrium dissociation constants are determined by curve fitting the values of millipolarization (P × 10^−3) units against the protein concentration. To determine the effects of various ligands on MtrR-DNA binding, 1 nM 5′-fluoresceinated oligodeoxynucleotide duplexes containing the mtrC operator site in 1 ml binding buffer (20 mM Tris HCl [pH 8.0], 100 mM NaCl, and 2.5% glycerol) were titrated against increasing concentrations of purified MtrR in the presence or absence of the indicated concentrations of bile salt, and the resulting changes in polarization were measured. All the samples were excited at 490 nm, and their polarized emissions were measured at 530 nm. All the data were plotted using Kaleidagraph (Synergy Software) and Prism (GraphPad Software), and the resulting plots were fitted to the following equation: P = {(Pbound − Pfree)[protein]/(KD + [protein])} + Pfree, where P is the polarization measured at a given protein concentration, Pfree is the initial polarization of the free ligand, Pbound is the maximum polarization of specifically bound ligand, KD is the equilibrium dissociation constant, and [protein] is the protein concentration. Nonlinear least-squares analysis was used to determine Pbound, and Kd. The reported binding constants are the average values from at least three independent experimental measurements.

[1] = tested on: mtrCp-lacZ in FA19 (wild type); assay: β-Galactosidase assay of mtrCp-lacZ fusion, strain FA19; type: cell-based, Neisseria gonorrhoeae
Source text: (§1) To determine if sublethal concentrations of bile salts could relieve MtrR-mediated repression of mtrC (and, by inference, the mtrCDE operon), a translational fusion of the promoter region of mtrC to lacZ was used. This fusion system was made in the wild-type (FA19) background ([41]) and cloned into mtrR deletion mutant strain JF1. Using the mtrCp-lacZ fusion, the β-galactosidase activity of the strains grown in the presence or absence of the bile salt chenodeoxycholate, taurodeoxycholate, or glycocholate was measured. The β-galactosidase levels were determined from strains grown overnight on GC agar supplemented with the bile salt at concentrations 4-fold below their specific MICs to ensure that the concentration of each bile salt was in the same biological range (the bile salt concentrations are listed in Table 2).
N. gonorrhoeae strains FA19 (wild type) and JF1 (FA19 ΔmtrR) containing a translational mtrCp-lacZ fusion with the proAB locus were used to assess the ability of bile salts to induce mtrC expression; the construction of these strains has been described previously ([41]). The MIC of bile salts for each strain used in the β-galactosidase assay was determined using a 2-fold agar dilution method ([32]). Gonococci were grown overnight on GC agar (Difco Laboratories) supplemented with a bile salt (glycocholate, chenodeoxycholate, or taurodeoxycholate) at concentrations that were 4-fold below the MIC. After overnight growth at 37°C under 3.8% (vol/vol) CO2, the bacteria were scraped from the agar plate, resuspended in 1 ml phosphate-buffered saline (pH 7.4), and lysed by freeze-thawing three times, after which the cell debris was pelleted by centrifugation. The lysate was then used to determine β-galactosidase levels as described previously ([63]). All experiments were performed in triplicate with at least three biological replicates conducted on different days.

[2] = tested on: mtrCp-lacZ in JF1 (FA19 ΔmtrR); type: cell-based, Neisseria gonorrhoeae
Source text: as §1
N. gonorrhoeae strains FA19 (wild type) and JF1 (FA19 ΔmtrR) containing a translational mtrCp-lacZ fusion with the proAB locus were used to assess the ability of bile salts to induce mtrC expression; the construction of these strains has been described previously ([41]). The MIC of bile salts for each strain used in the β-galactosidase assay was determined using a 2-fold agar dilution method ([32]). […]

T2 sequence (P39897 whole entry): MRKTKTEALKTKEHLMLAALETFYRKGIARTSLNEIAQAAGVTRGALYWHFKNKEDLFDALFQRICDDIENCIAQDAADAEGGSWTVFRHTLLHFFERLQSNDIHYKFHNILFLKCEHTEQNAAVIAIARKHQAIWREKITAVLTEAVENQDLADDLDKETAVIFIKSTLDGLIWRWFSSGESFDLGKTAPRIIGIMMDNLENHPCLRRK
T1 sequence (P39897 whole entry, one chain of several): as the sequence (P39897 whole entry) above

C[C@H](CCC(=O)O)[C@H]1CC[C@H]2[C@@H]3[C@H](O)C[C@@H]4C[C@H](O)CC[C@]4(C)[C@H]3CC[C@]12C [Chenodeoxycholate, chenodeoxycholate]
Concentration that disrupts the preformed MtrR-DNA complex (MtrR-DNA complex): 2 to 3 mM | Fold increase in Kd (MtrR-mtrCDE promoter; 1 mM bile salt): 8.3 | Fold increase in Kd (MtrR-mtrCDE promoter; 1 mM bile salt, listed as chenodeoxycholate): 8- to 28 | Fold increase in Kd (MtrR-mtrCDE promoter; 5 mM bile salt): No binding | Kd of MtrR-mtrCDE promoter binding in the presence of bile salt (MtrR-mtrCDE promoter; 5 mM bile salt, no bile salt 18 ± 3 nM): no DNA binding by MtrR was detected | MtrR-dependent derepression of the mtrC promoter ([1]; FA19 compared with ΔmtrR strain JF1, sublethal bile salt): clearly evident | Fold increase of mtrCp-lacZ activity ([1]; strain FA19, grown on GC agar with bile salt 4-fold below MIC versus normal agar, mM concentration in parentheses in the cell): 5.09 (0.2) | Fold increase of mtrCp-lacZ activity [2]: 1.37 (0.2)^b
